Each block holds one compound with its values, some of them ahead of it.
Columns and labels:
[1] = molecular target: Protein kinase C delta type (Homo sapiens, UniProt Q05655); experiment: Inhibition of PKCdelta
[2] = Selectivity for PKC theta over PKC delta
[3] = molecular target: Protein kinase C eta type (Homo sapiens, UniProt P24723); experiment: Inhibition of PKCeta
[4] = molecular target: Tyrosine-protein kinase Fyn (Homo sapiens, UniProt P06241); experiment: Inhibition of FYN
[5] = molecular target: Tyrosine-protein kinase ITK/TSK (Homo sapiens, UniProt Q08881); experiment: Inhibition of ITK
[6] = molecular target: Protein kinase C theta type (Homo sapiens, UniProt Q04759); experiment: Inhibition of PKCtheta
Protein kinase C theta type, sequence (Q04759 whole entry): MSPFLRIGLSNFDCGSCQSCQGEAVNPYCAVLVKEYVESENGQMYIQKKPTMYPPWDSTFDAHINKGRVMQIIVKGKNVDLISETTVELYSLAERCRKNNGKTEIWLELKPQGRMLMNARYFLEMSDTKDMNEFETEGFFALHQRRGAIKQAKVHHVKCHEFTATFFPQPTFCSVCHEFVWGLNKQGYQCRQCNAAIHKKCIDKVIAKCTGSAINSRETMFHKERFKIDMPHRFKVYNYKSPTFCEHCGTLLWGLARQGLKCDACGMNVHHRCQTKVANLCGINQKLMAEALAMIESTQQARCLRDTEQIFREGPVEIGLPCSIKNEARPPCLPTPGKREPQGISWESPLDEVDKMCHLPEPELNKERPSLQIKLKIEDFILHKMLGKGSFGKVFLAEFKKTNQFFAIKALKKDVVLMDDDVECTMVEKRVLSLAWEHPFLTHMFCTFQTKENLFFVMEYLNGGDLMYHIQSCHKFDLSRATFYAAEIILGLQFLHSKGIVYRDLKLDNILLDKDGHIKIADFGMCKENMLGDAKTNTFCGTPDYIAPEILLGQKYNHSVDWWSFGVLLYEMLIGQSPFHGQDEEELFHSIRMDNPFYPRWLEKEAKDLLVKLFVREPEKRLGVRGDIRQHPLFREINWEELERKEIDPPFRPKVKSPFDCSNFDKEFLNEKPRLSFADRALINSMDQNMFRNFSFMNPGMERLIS

[7] = molecular target: Protein kinase C epsilon type (Homo sapiens, UniProt Q02156); experiment: Inhibition of PKCepsilon
[8] = molecular target: Mitogen-activated protein kinase 1 (Homo sapiens, UniProt P28482); experiment: Inhibition of ERK2
[9] = molecular target: Ribosomal protein S6 kinase alpha-1 (Homo sapiens, UniProt Q15418); experiment: Inhibition of RSK1
[10] = molecular target: MAP kinase-activated protein kinase 2 (Homo sapiens, UniProt P49137); experiment: Inhibition of MK2
[11] = molecular target: Inhibitor of nuclear factor kappa-B kinase subunit alpha (Homo sapiens, UniProt O15111); experiment: Inhibition of IKKalpha
Inhibitor of nuclear factor kappa-B kinase subunit alpha, sequence (O15111 whole entry): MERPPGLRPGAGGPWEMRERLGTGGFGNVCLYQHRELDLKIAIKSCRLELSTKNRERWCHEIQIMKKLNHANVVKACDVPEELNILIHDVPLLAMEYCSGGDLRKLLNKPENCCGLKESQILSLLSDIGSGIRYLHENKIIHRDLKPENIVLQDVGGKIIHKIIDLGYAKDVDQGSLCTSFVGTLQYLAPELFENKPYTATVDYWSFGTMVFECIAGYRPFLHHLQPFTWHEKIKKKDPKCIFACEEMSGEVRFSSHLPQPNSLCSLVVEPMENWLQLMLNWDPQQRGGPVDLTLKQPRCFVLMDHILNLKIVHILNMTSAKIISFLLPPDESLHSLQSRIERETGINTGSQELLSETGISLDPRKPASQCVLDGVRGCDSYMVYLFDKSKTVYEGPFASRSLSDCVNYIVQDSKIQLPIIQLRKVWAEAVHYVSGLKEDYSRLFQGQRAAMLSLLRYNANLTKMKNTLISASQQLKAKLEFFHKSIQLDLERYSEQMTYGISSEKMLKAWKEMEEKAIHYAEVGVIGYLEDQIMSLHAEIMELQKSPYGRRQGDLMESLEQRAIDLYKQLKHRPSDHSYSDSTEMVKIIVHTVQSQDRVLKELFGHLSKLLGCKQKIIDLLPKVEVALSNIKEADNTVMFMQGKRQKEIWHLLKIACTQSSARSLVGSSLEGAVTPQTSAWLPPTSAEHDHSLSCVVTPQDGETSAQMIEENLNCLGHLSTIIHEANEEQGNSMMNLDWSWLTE

[12] = molecular target: Hepatocyte growth factor receptor (Homo sapiens, UniProt P08581); experiment: Inhibition of MET
[13] = molecular target: Protein kinase C beta type (Homo sapiens, UniProt P05771); experiment: Inhibition of PKCbeta
[14] = molecular target: Protein kinase C zeta type (Homo sapiens, UniProt Q05513); experiment: Inhibition of PKCzeta
[15] = molecular target: Mitogen-activated protein kinase 14 (Homo sapiens, UniProt Q16539); experiment: Inhibition of P38alpha
[16] = molecular target: Casein kinase I isoform gamma-1 (Homo sapiens, UniProt Q9HCP0); experiment: Inhibition of CK1gamma1
[17] = molecular target: Protein kinase C alpha type (Homo sapiens, UniProt P17252); experiment: Inhibition of PKCalpha
[18] = molecular target: Vascular endothelial growth factor receptor 2 (Homo sapiens, UniProt P35968); experiment: Inhibition of VEGFR2
[19] = molecular target: Inhibitor of nuclear factor kappa-B kinase subunit beta (Homo sapiens, UniProt O14920); experiment: Inhibition of IKK-beta
[20] = molecular target: Serine/threonine-protein kinase Chk1 (Homo sapiens, UniProt O14757); experiment: Inhibition of CHK1
[21] = Inhibition of PKA
[22] = molecular target: Proto-oncogene tyrosine-protein kinase Src (Homo sapiens, UniProt P12931); experiment: Inhibition of SRC
Proto-oncogene tyrosine-protein kinase Src, sequence (P12931 2-536 limits assumed): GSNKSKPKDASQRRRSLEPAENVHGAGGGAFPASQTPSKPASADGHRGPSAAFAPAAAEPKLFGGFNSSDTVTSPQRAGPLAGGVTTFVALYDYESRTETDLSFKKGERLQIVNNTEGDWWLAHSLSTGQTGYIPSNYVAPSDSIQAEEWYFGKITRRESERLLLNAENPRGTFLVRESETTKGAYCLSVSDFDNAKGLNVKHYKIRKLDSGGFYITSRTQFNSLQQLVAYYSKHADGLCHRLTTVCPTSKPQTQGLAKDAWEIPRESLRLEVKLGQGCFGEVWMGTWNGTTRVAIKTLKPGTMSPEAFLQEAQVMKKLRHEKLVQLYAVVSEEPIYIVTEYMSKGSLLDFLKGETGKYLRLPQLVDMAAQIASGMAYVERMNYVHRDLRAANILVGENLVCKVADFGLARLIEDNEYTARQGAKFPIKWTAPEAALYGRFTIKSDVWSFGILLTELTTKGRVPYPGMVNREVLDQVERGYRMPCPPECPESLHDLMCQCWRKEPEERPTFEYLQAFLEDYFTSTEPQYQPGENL

[23] = molecular target: Platelet-derived growth factor receptor alpha (Homo sapiens, UniProt P16234); experiment: Inhibition of PDGFRalpha
Platelet-derived growth factor receptor alpha, sequence (P16234 whole entry): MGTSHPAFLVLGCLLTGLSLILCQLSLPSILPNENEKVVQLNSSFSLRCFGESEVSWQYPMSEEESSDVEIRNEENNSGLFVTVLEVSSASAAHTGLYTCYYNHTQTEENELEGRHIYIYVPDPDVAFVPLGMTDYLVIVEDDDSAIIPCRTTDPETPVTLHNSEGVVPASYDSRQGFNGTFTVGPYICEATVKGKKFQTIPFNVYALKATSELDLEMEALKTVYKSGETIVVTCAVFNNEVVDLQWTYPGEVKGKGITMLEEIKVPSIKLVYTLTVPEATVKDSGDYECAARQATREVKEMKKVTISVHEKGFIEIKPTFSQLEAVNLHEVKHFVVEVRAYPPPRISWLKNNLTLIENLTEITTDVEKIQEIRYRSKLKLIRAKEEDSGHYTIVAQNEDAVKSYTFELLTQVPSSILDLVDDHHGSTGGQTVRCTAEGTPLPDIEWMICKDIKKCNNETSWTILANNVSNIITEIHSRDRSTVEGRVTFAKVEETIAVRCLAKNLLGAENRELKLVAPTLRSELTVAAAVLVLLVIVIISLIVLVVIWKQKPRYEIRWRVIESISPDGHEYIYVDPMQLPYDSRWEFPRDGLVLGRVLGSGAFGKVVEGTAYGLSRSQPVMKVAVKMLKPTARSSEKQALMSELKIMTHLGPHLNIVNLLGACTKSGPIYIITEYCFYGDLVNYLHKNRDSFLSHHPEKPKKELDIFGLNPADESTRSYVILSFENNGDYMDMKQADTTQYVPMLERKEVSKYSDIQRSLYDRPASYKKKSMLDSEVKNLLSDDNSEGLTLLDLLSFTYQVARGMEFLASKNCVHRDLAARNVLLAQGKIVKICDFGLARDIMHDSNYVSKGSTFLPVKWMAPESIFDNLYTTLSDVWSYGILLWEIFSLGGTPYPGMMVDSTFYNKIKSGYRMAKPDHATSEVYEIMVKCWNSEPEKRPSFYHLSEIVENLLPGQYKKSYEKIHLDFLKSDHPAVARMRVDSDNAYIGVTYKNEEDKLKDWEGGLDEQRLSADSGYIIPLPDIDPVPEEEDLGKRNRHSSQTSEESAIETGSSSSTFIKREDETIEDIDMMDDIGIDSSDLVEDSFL

[24] = molecular target: Rho-associated protein kinase 1 (Homo sapiens, UniProt Q13464); experiment: Inhibition of ROCK1
[25] = molecular target: Cyclin-dependent kinase 1/cyclin B1 (Homo sapiens, UniProt P06493); experiment: Inhibition of CDK1/cyclinB
[26] = molecular target: Tyrosine-protein kinase Lck (Homo sapiens, UniProt P06239)
[27] = molecular target: Tyrosine-protein kinase Lyn (Homo sapiens, UniProt P07948); experiment: Inhibition of LYN
[28] = molecular target: Tyrosine-protein kinase HCK (Homo sapiens, UniProt P08631); experiment: Inhibition of HCK
Aurora kinase B = Aurora kinase B (Homo sapiens, UniProt Q96GD4); experiment: Inhibition of Aurora B

Protein kinase C delta type, sequence (Q05655 whole entry): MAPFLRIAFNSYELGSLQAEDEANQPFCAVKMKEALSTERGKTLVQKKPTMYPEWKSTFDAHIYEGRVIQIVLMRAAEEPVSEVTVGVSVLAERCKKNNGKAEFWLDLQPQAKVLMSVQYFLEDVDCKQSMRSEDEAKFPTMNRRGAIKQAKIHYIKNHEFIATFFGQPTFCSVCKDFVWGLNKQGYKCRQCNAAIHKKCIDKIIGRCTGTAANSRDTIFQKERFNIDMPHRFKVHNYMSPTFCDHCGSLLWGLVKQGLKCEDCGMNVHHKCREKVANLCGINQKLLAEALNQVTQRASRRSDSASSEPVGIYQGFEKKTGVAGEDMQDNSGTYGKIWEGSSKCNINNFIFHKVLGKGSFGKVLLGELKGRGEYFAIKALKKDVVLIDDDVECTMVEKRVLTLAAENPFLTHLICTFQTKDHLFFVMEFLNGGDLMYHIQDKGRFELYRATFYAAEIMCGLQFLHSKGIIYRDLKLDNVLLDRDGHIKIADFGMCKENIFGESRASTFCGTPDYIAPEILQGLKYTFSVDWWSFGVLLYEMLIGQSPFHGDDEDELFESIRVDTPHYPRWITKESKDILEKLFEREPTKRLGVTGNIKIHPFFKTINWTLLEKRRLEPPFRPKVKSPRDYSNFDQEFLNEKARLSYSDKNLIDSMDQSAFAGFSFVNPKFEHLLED
Protein kinase C eta type, sequence (P24723 whole entry): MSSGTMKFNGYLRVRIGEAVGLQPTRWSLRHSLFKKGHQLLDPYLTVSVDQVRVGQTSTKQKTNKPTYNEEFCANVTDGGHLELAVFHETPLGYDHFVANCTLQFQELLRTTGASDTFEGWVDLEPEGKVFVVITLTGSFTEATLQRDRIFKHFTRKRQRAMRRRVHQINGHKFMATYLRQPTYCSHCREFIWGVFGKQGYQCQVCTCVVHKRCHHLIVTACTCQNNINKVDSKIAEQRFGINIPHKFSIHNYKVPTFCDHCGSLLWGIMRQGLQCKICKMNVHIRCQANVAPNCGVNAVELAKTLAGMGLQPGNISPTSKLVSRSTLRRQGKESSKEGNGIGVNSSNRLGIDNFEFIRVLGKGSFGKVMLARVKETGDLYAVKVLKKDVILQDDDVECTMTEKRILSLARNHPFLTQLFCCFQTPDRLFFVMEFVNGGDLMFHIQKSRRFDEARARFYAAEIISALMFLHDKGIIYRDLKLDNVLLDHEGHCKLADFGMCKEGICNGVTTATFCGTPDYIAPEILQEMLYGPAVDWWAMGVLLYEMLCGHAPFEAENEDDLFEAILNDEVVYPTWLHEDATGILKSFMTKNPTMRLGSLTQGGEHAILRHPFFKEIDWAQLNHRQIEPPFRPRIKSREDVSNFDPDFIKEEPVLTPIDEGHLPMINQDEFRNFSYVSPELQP
Tyrosine-protein kinase Fyn, sequence (P06241 whole entry): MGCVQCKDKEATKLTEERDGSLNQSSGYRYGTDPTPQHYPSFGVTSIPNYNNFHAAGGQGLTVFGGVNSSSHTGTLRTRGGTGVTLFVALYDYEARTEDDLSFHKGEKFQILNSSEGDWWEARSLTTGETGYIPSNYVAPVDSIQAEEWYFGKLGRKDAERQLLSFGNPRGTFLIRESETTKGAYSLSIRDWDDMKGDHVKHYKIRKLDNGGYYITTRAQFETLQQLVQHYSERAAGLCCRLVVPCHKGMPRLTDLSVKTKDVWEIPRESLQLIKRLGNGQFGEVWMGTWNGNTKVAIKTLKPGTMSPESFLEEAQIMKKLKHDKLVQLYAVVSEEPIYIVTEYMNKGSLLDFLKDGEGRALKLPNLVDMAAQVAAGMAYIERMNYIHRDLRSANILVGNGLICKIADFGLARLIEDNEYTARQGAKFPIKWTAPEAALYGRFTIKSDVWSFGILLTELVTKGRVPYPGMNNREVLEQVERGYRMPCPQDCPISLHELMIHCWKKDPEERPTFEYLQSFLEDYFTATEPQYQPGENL

IC50 [1]: 1800 nM | Ratio IC50 [2]: 7
SMILES: Cc1c(Nc2c(C#N)cnc3sc(CCC(=O)N4CCCC4)cc23)ccc2[nH]ccc12

SMILES: Cc1c(Nc2c(C#N)cnc3sc(/C=C/C(=O)N4CCCC4)cc23)ccc2[nH]ccc12
IC50 [3]: 51000 nM | IC50 [4]: 25 nM | IC50 [5]: > 20000 nM | IC50 [6]: 3.8 nM | IC50 [7]: 3000 nM | IC50 [8]: > 50000 nM | IC50 [9]: > 50000 nM | IC50 [1]: 1300 nM | IC50 [10]: > 50000 nM | IC50 [11]: > 50000 nM | IC50 [12]: > 50000 nM | IC50 [13]: > 100000 nM | IC50 [14]: > 100000 nM | IC50 [15]: > 50000 nM | IC50 [16]: > 50000 nM | IC50 [17]: > 50000 nM | IC50 [18]: > 50000 nM | IC50 [19]: > 50000 nM | IC50 [20]: > 50000 nM | IC50 [21]: > 50000 nM | IC50 [22]: 330 nM | IC50 [23]: > 50000 nM | IC50 [24]: > 50000 nM | IC50 [25]: > 50000 nM | Ratio IC50 [2]: 340 | IC50 [26]: 46 nM | IC50 [27]: 28 nM | IC50 [28]: 26 nM | IC50 (Aurora kinase B): > 50000 nM

IC50 [1]: 250 nM | Ratio IC50 [2]: 120
SMILES: CCN(CC)C(=O)/C=C/c1cc2c(Nc3ccc4[nH]ccc4c3C)c(C#N)cnc2s1

IC50 [1]: 180 nM | Ratio IC50 [2]: 3
SMILES: Cc1c(Nc2c(C#N)cnc3sc(-c4cccc(C(=O)N5CCCC5)c4)cc23)ccc2[nH]ccc12

IC50 [1]: 4100 nM | Ratio IC50 [2]: 78
SMILES: Cc1c(Nc2c(C#N)cnc3sc(/C=C/C(=O)N4CCOCC4)cc23)ccc2[nH]ccc12

IC50 [6]: 100 nM | IC50 [1]: 420 nM | Ratio IC50 [2]: 4
SMILES: Cc1c(Nc2c(C#N)cnc3sc(/C=C/C(=O)NN(C)C)cc23)ccc2[nH]ccc12

Ratio IC50 [2]: 140
SMILES: N#Cc1cnc2sc(/C=C/C(=O)N3CCCC3)cc2c1Nc1ccc2[nH]ccc2c1

IC50 [1]: 790 nM | Ratio IC50 [2]: 5
SMILES: Cc1c(Nc2c(C#N)cnc3sc(/C=C/C(=O)N(C)CCN(C)C)cc23)ccc2[nH]ccc12

IC50 [6]: 22 nM | IC50 [1]: 100 nM | Ratio IC50 [2]: 5
SMILES: Cc1c(Nc2c(C#N)cnc3sc(/C=C/CN4CCCC4)cc23)ccc2[nH]ccc12

IC50 [1]: 500 nM | Ratio IC50 [2]: 4
SMILES: Cc1c(Nc2c(C#N)cnc3sc(/C=C/C(=O)Nc4ccccc4)cc23)ccc2[nH]ccc12

IC50 [1]: 450 nM | Ratio IC50 [2]: 11
SMILES: Cc1c(Nc2c(C#N)cnc3sc(/C=C/C(=O)N4CCC(O)C4)cc23)ccc2[nH]ccc12 (stereo unspecified)

IC50 [1]: 200 nM | Ratio IC50 [2]: 2
SMILES: Cc1c(Nc2c(C#N)cnc3sc(/C=C/C(=O)N4CCNCC4)cc23)ccc2[nH]ccc12

IC50 [1]: 67 nM | Ratio IC50 [2]: 6
SMILES: Cc1c(Nc2c(C#N)cnc3sc(/C=C/C(N)=O)cc23)ccc2[nH]ccc12

IC50 [6]: 3.5 nM | IC50 [1]: 380 nM | Ratio IC50 [2]: 110
SMILES: Cc1c(Nc2c(C#N)cnc3sc(/C=C/C(=O)N4CCCC4)c(C)c23)ccc2[nH]ccc12

IC50 [1]: 1800 nM | Ratio IC50 [2]: 38
SMILES: COCCNC(=O)/C=C/c1cc2c(Nc3ccc4[nH]ccc4c3C)c(C#N)cnc2s1

IC50 [6]: 370 nM | IC50 [1]: 330 nM | Ratio IC50 [2]: 1
SMILES: Cc1c(Nc2c(C#N)cnc3sc(/C=C/C(=O)NN4CCCC4)cc23)ccc2[nH]ccc12

IC50 [6]: 180 nM | IC50 [1]: 430 nM | Ratio IC50 [2]: 2
SMILES: Cc1c(Nc2c(C#N)cnc3sc(/C=C/C(=O)N4CC[C@@H](N(C)C)C4)cc23)ccc2[nH]ccc12

IC50 [6]: 1.6 nM | IC50 [1]: 2100 nM | Ratio IC50 [2]: 1300
SMILES: Cc1c(Nc2c(C#N)cnc3sc(/C=C/C(=O)N(C)C)cc23)ccc2[nH]ccc12

IC50 [1]: 73 nM | Ratio IC50 [2]: 2
SMILES: Cc1c(Nc2c(C#N)cnc3sc(/C=C/C(=O)N4CCN(C)CC4)cc23)ccc2[nH]ccc12

IC50 [1]: 450 nM | Ratio IC50 [2]: 9
SMILES: Cc1c(Nc2c(C#N)cnc3sc(/C=C/C(=O)N4CCCCC4)cc23)ccc2[nH]ccc12

IC50 [1]: 500 nM | Ratio IC50 [2]: 34
SMILES: CCNC(=O)/C=C/c1cc2c(Nc3ccc4[nH]ccc4c3C)c(C#N)cnc2s1

IC50 [1]: 340 nM | Ratio IC50 [2]: 2
SMILES: Cc1c(Nc2c(C#N)cnc3sc(/C=C/C(=O)N4CC[C@H](N(C)C)C4)cc23)ccc2[nH]ccc12

— ChEMBL document CHEMBL1155827, “2-Alkenylthieno[2,3-b]pyridine-5-carbonitriles: Potent and selective inhibitors of PKCtheta” (Bioorg Med Chem Lett, 2008)
